In PubChem BioAssay AID248 (DTP/NCI, 2004):
“And” between values parts separate entries of the source, which are not always exact repeats. Equal values may be shown once. Inconclusive results and toxic doses are left out. No stated cut-off is given here; in the data, active means T/C of 150% or more; inactive means T/C below 125%.

Test system: L1210 leukemia ip in BDF1 mice, survival T/C
Assay: NCI In Vivo Anticancer Drug Screen. Data for tumor model L1210 Leukemia (intraperitoneal) in B6D2F1 (BDF1) mice
Details: endpoint: mean survival time, higher = longer survival
In short: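 Tumor cells were implanted, animals were treated, and survival was followed. The result divides the treated measurement by the vehicle-control measurement.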

[1] = dose: 100.0 mg/kg/injection, schedule: Q04DX002 (ip), vehicle: saline with Tween-80
[2] = dose: 100.0 mg/kg/injection, schedule: Q01DX001 (ip), vehicle: saline with Tween-80
[3] = dose: 200.0 mg/kg/injection, schedule: Q01DX001 (ip), vehicle: saline with Tween-80
[4] = dose: 400.0 mg/kg/injection, schedule: Q01DX001 (ip), vehicle: saline with Tween-80
[5] = dose: 100.0 mg/kg/injection, schedule: Q01DX001 (ip), vehicle: Klucel (hydroxypropylcellulose) (HPC)
[6] = dose: 100.0 mg/kg/injection, schedule: Q01DX009 (ip), vehicle: Klucel (hydroxypropylcellulose) (HPC)
[7] = dose: 200.0 mg/kg/injection, schedule: Q01DX001 (ip), vehicle: Klucel (hydroxypropylcellulose) (HPC)
[8] = dose: 200.0 mg/kg/injection, schedule: Q01DX009 (ip), vehicle: Klucel (hydroxypropylcellulose) (HPC)
[9] = dose: 400.0 mg/kg/injection, schedule: Q01DX001 (ip), vehicle: Klucel (hydroxypropylcellulose) (HPC)
[10] = dose: 400.0 mg/kg/injection, schedule: Q01DX009 (ip), vehicle: Klucel (hydroxypropylcellulose) (HPC)
[11] = dose: 100.0 mg/kg/injection, schedule: Q01DX001 (ip), vehicle: saline
[12] = dose: 200.0 mg/kg/injection, schedule: Q01DX001 (ip), vehicle: saline
[13] = dose: 100.0 mg/kg/injection, schedule: Q04DX003 (ip), vehicle: saline
[14] = dose: 200.0 mg/kg/injection, schedule: Q04DX003 (ip), vehicle: saline
[15] = dose: 400.0 mg/kg/injection, schedule: Q04DX003 (ip), vehicle: saline
[16] = dose: 100.0 mg/kg/injection, schedule: Q04DX003 (ip), vehicle: saline with Tween-80
[17] = dose: 200.0 mg/kg/injection, schedule: Q04DX003 (ip), vehicle: saline with Tween-80
[18] = dose: 400.0 mg/kg/injection, schedule: Q04DX003 (ip), vehicle: saline with Tween-80

Measured: T/C

CCS(=O)(=O)/C=C/c1ccc(NC(C)=O)cc1
inactive: [1] 122 % of control | dose: 200.0 mg/kg/injection, schedule: Q04DX002 (ip), vehicle: saline with Tween-80 98 % of control | dose: 400.0 mg/kg/injection, schedule: Q04DX002 (ip), vehicle: saline with Tween-80 91 % of control

Cc1ccc(-c2c(C)c(-c3ccccc3)c(-c3ccccc3)c(C)c2-c2ccccc2)cc1C
inactive: [2] 104 % of control | [3] 100 % of control | [4] 100 % of control

O=C(CC1(Cl)C(F)(F)C(F)(F)C1(F)F)c1ccccc1
inactive: dose: 6.25 mg/kg/injection, schedule: Q01DX009 (ip), vehicle: saline 94 % of control | dose: 12.5 mg/kg/injection, schedule: Q01DX009 (ip), vehicle: saline 94 % of control | dose: 25.0 mg/kg/injection, schedule: Q01DX009 (ip), vehicle: saline with Tween-80 94 % of control | dose: 25.0 mg/kg/injection, schedule: Q01DX009 (ip), vehicle: saline 100 % of control

O=C(Nc1ccccn1)Nc1cc(C(F)(F)F)ccc1Cl
inactive: [5] 98 % of control | [6] 95 % of control and 90 % of control | dose: 100.0 mg/kg/injection, schedule: Q04DX002 (ip), vehicle: Klucel (hydroxypropylcellulose) (HPC) 95 % of control and 103 % of control | dose: 100.0 mg/kg/injection, schedule: Q04DX003 (ip), vehicle: Klucel (hydroxypropylcellulose) (HPC) 108 % of control | [7] 91 % of control | [8] 92 % of control | dose: 200.0 mg/kg/injection, schedule: Q04DX002 (ip), vehicle: Klucel (hydroxypropylcellulose) (HPC) 98 % of control and 103 % of control | dose: 200.0 mg/kg/injection, schedule: Q04DX003 (ip), vehicle: Klucel (hydroxypropylcellulose) (HPC) 97 % of control | [9] 98 % of control | [10] 95 % of control | dose: 400.0 mg/kg/injection, schedule: Q04DX002 (ip), vehicle: Klucel (hydroxypropylcellulose) (HPC) 93 % of control and 97 % of control | dose: 400.0 mg/kg/injection, schedule: Q04DX003 (ip), vehicle: Klucel (hydroxypropylcellulose) (HPC) 96 % of control

c1ccc(-c2noc(-c3ccccc3)n2)cc1
inactive: dose: 62.5 mg/kg/injection, schedule: Q04DX002 (ip), vehicle: Klucel (hydroxypropylcellulose) (HPC) 90 % of control | dose: 125.0 mg/kg/injection, schedule: Q04DX002 (ip), vehicle: Klucel (hydroxypropylcellulose) (HPC) 87 % of control | dose: 250.0 mg/kg/injection, schedule: Q04DX002 (ip), vehicle: Klucel (hydroxypropylcellulose) (HPC) 93 % of control

O=C(OCC1OCC(OC(=O)c2ccccc2)C1OC(=O)c1ccccc1)c1ccccc1 (configuration not stated)
inactive: [2] 92 % of control | [3] 110 % of control

CN(C)/C(N)=N/N
inactive: dose: 15.0 mg/kg/injection, schedule: Q01DX Z (ip), vehicle: methylcellulose (MC) 113 % of control | dose: 30.0 mg/kg/injection, schedule: Q01DX Z (ip), vehicle: methylcellulose (MC) 109 % of control | dose: 60.0 mg/kg/injection, schedule: Q01DX Z (ip), vehicle: methylcellulose (MC) 100 % of control | dose: 120.0 mg/kg/injection, schedule: Q01DX Z (ip), vehicle: methylcellulose (MC) 103 % of control | dose: 125.0 mg/kg/injection, schedule: Q01DX Z (oral), vehicle: methylcellulose (MC) 90 % of control | dose: 240.0 mg/kg/injection, schedule: Q01DX Z (ip), vehicle: methylcellulose (MC) 101 % of control | dose: 250.0 mg/kg/injection, schedule: Q01DX Z (oral), vehicle: methylcellulose (MC) 101 % of control | dose: 375.0 mg/kg/injection, schedule: Q01DX Z (ip), vehicle: methylcellulose (MC) 110 % of control | dose: 480.0 mg/kg/injection, schedule: Q01DX Z (ip), vehicle: methylcellulose (MC) 107 % of control

CN(C)c1nc2nc[nH]c2c(=S)n1C
inactive: [11] 97 % of control | [12] 97 % of control | dose: 400.0 mg/kg/injection, schedule: Q01DX001 (ip), vehicle: saline 95 % of control

OC1CCCSC1 (configuration not stated)
inactive: dose: 100.0 mg/kg/injection, schedule: Q01DX009 (ip), vehicle: saline 102 % of control | [13] 96 % of control | dose: 200.0 mg/kg/injection, schedule: Q01DX009 (ip), vehicle: saline 98 % of control | [14] 100 % of control | dose: 400.0 mg/kg/injection, schedule: Q01DX009 (ip), vehicle: saline 98 % of control | [15] 89 % of control

CCC(CO)(CO)C(=[N-])c1ccccc1O.CCC(CO)(CO)N=Cc1ccccc1O.[Co]
inactive: dose: 50.0 mg/kg/injection, schedule: Q01DX001 (ip), vehicle: saline 98 % of control | [11] 94 % of control | [12] 94 % of control

COC(=O)C1CN1C(c1ccccc1)(c1ccccc1)c1ccccc1 (configuration not stated)
inactive: [2] 92 % of control | [16] 94 % of control | [3] 100 % of control | [17] 98 % of control | [4] 90 % of control | [18] 90 % of control

NS(=O)(=O)c1c[nH]c(=O)[nH]c1=O
inactive: [13] 104 % of control | [14] 102 % of control | [15] 102 % of control

C=CCc1ccc(OC(=O)Nc2ccc(C)cc2Cl)c(OC)c1
inactive: dose: 100.0 mg/kg/injection, schedule: Q04DX002 (ip), vehicle: carboxymethylcellulose (CMC) 93 % of control and 101 % of control | dose: 200.0 mg/kg/injection, schedule: Q04DX002 (ip), vehicle: carboxymethylcellulose (CMC) 96 % of control and 100 % of control | dose: 400.0 mg/kg/injection, schedule: Q04DX002 (ip), vehicle: carboxymethylcellulose (CMC) 97 % of control and 107 % of control

CCOC(=O)C(C)(C)C(O)C(C)C (configuration not stated)
inactive: dose: 100.0 mg/kg/injection, schedule: Q01DX009 (ip), vehicle: saline with Tween-80 106 % of control | dose: 200.0 mg/kg/injection, schedule: Q01DX009 (ip), vehicle: saline with Tween-80 103 % of control | dose: 400.0 mg/kg/injection, schedule: Q01DX009 (ip), vehicle: saline with Tween-80 93 % of control

CCOC(=O)CCc1ccc(N=NN(C)C(C)CC)cc1 (configuration not stated)
inactive: dose: 100.0 mg/kg/injection, schedule: Q01DX001 (ip), vehicle: carboxymethylcellulose (CMC) 111 % of control | dose: 200.0 mg/kg/injection, schedule: Q01DX001 (ip), vehicle: carboxymethylcellulose (CMC) 105 % of control | dose: 400.0 mg/kg/injection, schedule: Q01DX001 (ip), vehicle: carboxymethylcellulose (CMC) 111 % of control

CN(C)c1ccc2c(c1)N=[N+]([O-])c1cc(N(C)C)ccc1C2
inactive: [5] 97 % of control | [7] 97 % of control | [9] 89 % of control

Cn1nc(N)c2cc(C#N)c(N)nc21
inactive: [6] 90 % of control | [8] 90 % of control | [10] 95 % of control

O=C(O)c1cccc(CCl)c1
inactive: [1] 95 % of control

O=C(O)CCc1c(O)cc(Br)c(O)c1Br
inactive: [5] 90 % of control | [7] 93 % of control | [9] 96 % of control

CCCCOC1OCN(C(C)(C)C)CC1(C)C (configuration not stated)
inactive: dose: 100.0 mg/kg/injection, schedule: Q04DX002 (ip), vehicle: saline 104 % of control | dose: 200.0 mg/kg/injection, schedule: Q04DX002 (ip), vehicle: saline 112 % of control | dose: 400.0 mg/kg/injection, schedule: Q04DX002 (ip), vehicle: saline 101 % of control

Cc1ccc(NC(=S)NCCO)cc1C
inactive: [16] 98 % of control | [17] 98 % of control | [18] 97 % of control
